Data reported in US4273704A, “N-Adamantane-substituted tetrapeptide amides” (G. D. Searle & Co., priority 1979, dated 1981).

System: phenyl-p-benzoquinone-induced writhing
Test: mouse phenyl-p-benzoquinone-induced writhing test (analgesic activity)
Assay type: in vivo
Conditions: s.c.; 60 minutes; male CD-1 mice; dose which decreased writhing by ≥50% of control mean in 50% of the mice
Procedure: This test is a modification of the procedure described by L. C. Hendershot and J. Forsaith, in J. PHARMACOL. EXP. THER., 125:237(1959).
Details of the test are as follows: Groups of 10 male CD-1 mice (Charles River) weighing 18-25 g. are pretreated subcutaneously (s.c.) or intragastrically (i.g.) with the vehicle control or the compound of interest in a volume of 10 ml/kg. Phenyl-p-benzoquinone (PBQ), 2.5 mg/kg is administered intraperitoneally (i.p.) 30 or 60 minutes later as a 0.025% solution in 5% ethanol. Starting 5 minutes after the PBQ challenge, each mouse is observed for a 10 minute period during which the number of writhes are counted. A "writhe" consists of a combination or sequence of arching the back, pelvic rotation, and hind limb extension. Significant analgesia is assumed when an animal writhing frequency is ≤50% of the daily control group mean. Estimates of the ED50 defined as the dose which decreased writhing by ≥50% of the control group mean in 50% of the mice are determined using the method of J. T. Litchfield and F. Wilcoxon, J. PHARMCOL. EXP. THER., 96:99(1949).

CN1CC[C@]23c4c5ccc(O)c4O[C@H]2[C@@H](O)C=C[C@H]3[C@H]1C5 [morphine] was tested, and the “ED50 (95% confidence limits)” value was 0.1 mpk.
